{"source": "patent US20050008623A1", "about": "“In vitro production of dendritic cells from CD14+ monocytes” (priority 2001, published 2005)", "type_in_all_cases": "cell-based, human", "key": {"[1]": {"system": "Langerhans cells generated in vitro", "test": "Chemoattraction and migration of Langerhans cells of Example 6"}, "[2]": {"system": "dendritic cells generated in vitro (CCR6 receptor)", "test": "Chemoattraction of undifferentiated immature dendritic cells (CCR6 functionality)", "settings": "day 6 cells of Example 4", "experimental": "The culture medium is initially supplemented with a third cytokine, namely the cytokine IL-13 at a rate of 10 ng/ml. Before 2 days of culture at the most, the same culture medium devoid of IL-13 is added up to day 6 of culture."}, "[3]": {"system": "IDC (DC-SIGN+)", "test": "Maturation marker DC-LAMP expression after TNFα, interstitial dendritic cells", "settings": "200 IU/ml for 48 hours from day 6", "experimental": "(§1) On day 6, the cytokine TNFα is added at a rate of 200 IU/ml for 48 h.\n(§2) The advantage of a substantially homogeneous dual population of LC and IDC is the possibility of interacting with both cell types as in the in vivo situation. To study the maturation pathways of LC and IDC generated in vitro, we analyzed the intracytoplasmic expression of maturation marker DC-LAMP on both LC and IDC. To this end, the experiments were performed according to the following protocol: • 2.10^5 cells of a mixed population comprising LC and IDC generated in vitro are incubated successively with: • either 5 microliters of anti-DC-SIGN antibody (2 micrograms/milliliter) or 10 microliters of anti-Langerin antibody (2 micrograms/milliliter), for 30 minutes at 4° C.; • 10 microliters of anti-mouse goat antibody coupled with the fluorochrom FITC (Fluorescein IsoThioCyanate) at the concentration of 1 microgram/milliliter for 30 min at 4° C.; • blocking with normal mouse serum diluted to 1/20; • 10 microliters of anti-DC-LAMP antibody coupled with fluorochrom PE (PhycoErythrin) at the concentration of 1 microgram/milliliter for 30 minutes at 4° C. • the results are expressed as the percentage of LC which are DC-LAMP positive and IDC which are DC-LAMP positive. […]"}, "[4]": {"system": "Langerin+LC population", "test": "Maturation marker DC-LAMP expression after TNFα, Langerhans cells", "settings": "200 IU/ml for 48 hours from day 6", "experimental": "as §1, §2"}, "[5]": {"system": "dendritic cells generated in vitro (CCR7 receptor)", "test": "Chemoattraction of activated mature dendritic cells (CCR7 functionality)", "settings": "activated mature cells of Example 8 (TNFα more than 20 hours)", "experimental": "Within the framework of the invention, the culture medium is initially supplemented with a third cytokine, namely the cytokine IL-13 at a rate of 10 ng/ml. The culture is carried out up to day 6, irrespective of the incubation time of the cytokine IL-13."}}}
{"molecule": "IL-1β: cytokine under whose effect Langerhans cells migrate", "values": [{"measurement": "migration of Langerhans cells", "setting": "[1]", "result": "migrating"}]}
{"molecule": "MIP-3α: ligand of the specific receptor CCR6", "values": [{"measurement": "chemoattraction of dendritic cells", "setting": "[2]", "result": "strongly chemoattracted"}, {"measurement": "chemoattraction of Langerhans cells", "setting": "[1]", "result": "capable of being chemoattracted"}]}
{"molecule": "TNFα", "values": [{"measurement": "expression of maturation marker DC-LAMP on IDC", "setting": "[3]", "result": "do not express"}, {"measurement": "percentage of LC which are DC-LAMP positive", "setting": "[4]", "result": 50, "unit": "%"}]}
{"molecule": "MIP-3β: ligand of the specific receptor CCR7 (protein, UniProt Q99731 22-98, looked up) C-C motif chemokine 19: GTNDAEDCCLSVTQKPIPGYIVRNFHYLLIKDGCRVPAVVFTTLRGRQLCAPPDQPWVERIIQRLQRTSAKMKRRSS", "values": [{"measurement": "chemoattraction of dendritic cells", "setting": "[5]", "result": "strongly chemoattracted"}]}
